Read-outs that look alike come from different tables or passages of the source.

The target of assay [1] is T1, PAF radioreceptor (dog platelets) (Canis lupus familiaris, UniProt A0A8I3NSH0).
T1 construct: Platelet rich plasma is prepared by centrifugation of citrate-treated dog blood; from tissue; host or cells: washed dog platelets
T1 sequence (A0A8I3NSH0 1-343): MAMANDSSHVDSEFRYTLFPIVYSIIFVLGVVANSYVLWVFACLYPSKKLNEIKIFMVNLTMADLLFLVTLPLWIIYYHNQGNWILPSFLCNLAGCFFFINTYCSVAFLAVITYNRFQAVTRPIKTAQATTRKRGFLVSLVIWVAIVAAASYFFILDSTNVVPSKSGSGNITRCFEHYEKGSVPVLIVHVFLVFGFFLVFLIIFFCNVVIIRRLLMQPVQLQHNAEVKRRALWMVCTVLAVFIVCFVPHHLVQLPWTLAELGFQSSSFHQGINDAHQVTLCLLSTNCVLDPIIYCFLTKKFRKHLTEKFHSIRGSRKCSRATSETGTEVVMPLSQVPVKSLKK
Briefly: PAF radioreceptor binding assay. As to conditions: 3H-PAF. Here is the method: (m) PAF Radioreceptor Binding Assay
Platelet rich plasma is prepared by centrifugation of citrate-treated dog blood. Acidification to pH 6.5 with 0.15M citric acid and centrifugation for 10 minutes at 1000 g yields a platelet pellet which is then washed by resuspension in EDTA-Phosphate Buffered Saline (PBS) and recentrifuged. The washed platelet preparation is adjusted to 2×10^7 platelets/50 μl in 0.1% BSA-PBS.
To a […] microfuge tube containing 50 μl silicone oil (specific gravity 1.023) is added buffer, PAF standard or analog, or an extract to bring the aqueous volume to 150 μl. 50 μl of ^3 H-PAF (10,000 cpm, 45 Ci/mM) is added followed by 2×10^7 dog platelets. After mixing, incubating for 10 minutes at room temperature, and centrifuging for 1 minute in a Beckman Microfuge B (8000 g), the pellet is removed by clipping off the tip of the tube, solubilizing the platelets with 200 μl of 50% methanol, and counting in 10 ml of Aquasol.

Assay [2] relates to histamine-induced constriction in guinea pig ilea. The assay is described as follows: Antagonism of histamine-induced constriction in guinea pig ilea. The settings on record: 1×10^-7 M histamine. Here is the method: (f) Antagonism of Histamine-induced Constriction in Guinea Pig Ilea
Antihistaminic activity was determined on a segment of guinea pig ileum that was suspended in a 37° C. bath of oxygenated Tyrodes solution. At 4 minute intervals, the ileum was challenged with 1×10^-7 M histamine for sufficient time to produce a peak contraction and then washed with fresh Tyrodes solution. After the tissue response to histamine had stabilized, the ileum was pretreated with the standard antihistaminic compound, pyrilamine maleate, for 1 minute prior to rechallenge with histamine, the contraction recorded, and the tissue washed with Tyrodes solution. […] By the IC50 for pyrilamine maleate in the test system was 1×10^-8 M. IC50 's for test drugs were determined by this same procedure.

Assay [3] deals with leukotriene E (LTE) induced skin wheal formation in rat skin. Briefly: LTE-induced skin wheal formation in rat. The assay is classed as in vivo. As to conditions: rat skin wheal, read-out: ID50 (the source's name). The protocol:
(a) Methodology for LTE-induced Skin Wheal Formation in Rat. The ability of a drug to inhibit leukotriene E (LTE) induced skin wheal formation in rat skin is measured. In this model system a dose of LTE which gives a maximal wheal response, is injected (in 0.05 ml of saline) intradermally into anesthetized rats which have been pretreated for 30 minutes with 50 mg/kg of pyrilamine maleate and 4 mg/kg of methyl […] maleate (both administered intraperitoneally). The animal is then immediately treated with test drug (at 10 mg/kg, i.v.) followed by an intravenous injection of Evans blue (0.5%) into the tail vein of the animal. Thirty minutes later the animals are sacrificed and the increase in capillary permeability induced by LTE is reflected by the migration of dye into the injection point in the skin (the response being quantitated by the size, in mm, of the dye spot in the skin). The average response in 5 animals (4 intradermal injections of LTE per animal) treated with the test compound is compared with the response elicited in a similar group of animals which were not treated with the drug. For oral studies, the test animals are pretreated two hours prior to intradermal injection of LTE.

The test system of assay [4] is acetylcholine-induced constriction in guinea pig ilea. The assay is described as follows: Antagonism of acetylcholine-induced constriction in guinea pig ilea. As to conditions: 5.0×10^-7 M acetylcholine; read-out: IC50 antagonism of acetylcholine-induced constrictions. Here is the method: (e) Antagonism of Acetylcholine-induced Constriction in Guinea Pig Ilea
Anticholinergic activity was determined on a segment of guinea pig ileum that was suspended in a 37° C. bath of oxygenated Tyrodes solution. At 4 minute intervals, the ileum was challenged with 5.0×10^-7 M acetylcholine for sufficient time to produce a peak contraction and then washed with fresh Tyrodes solution. After the tissue response to acetylcholine had stablized, the ileum was pretreated with the standard anticholinergic, atropine sulfate, for 1 minute prior to rechallenge with acetylcholine, the contraction recorded and the tissue washed with Tyrodes solution. […] The IC50 for atropine was 1×10^-8 M. THe IC50 's for test drugs were determined by this same procedure.

As to `CC(C)c1ccc2nc3ccc(C(=O)NCCCCCCc4cccnc4)cn3c(=O)c2c1` [Compound C, 2-(1-Methylethyl)-N-[6-(3-pyridyl)hexyl]-11-oxo-11H-pyrido[2,1-b]quinazoline-8-carboxamide], the IC50 (commonly the midpoint of a concentration-inhibition curve) in assay [1] is 1000 nM.

With `CC(C)c1ccc2nc3ccc(C(=O)NCCCCn4ccnc4)cn3c(=O)c2c1` [Compound A, N-[4-(1H-imidazol-1-yl)butyl]-2-(1-methylethyl)-11-oxo-11H-pyrido[2,1-b]quinazoline-8-carboxamide], the IC50 in assay [2] came out at 1000 nM; in assay [4], 5000 nM. The ED50 in assay [3] (iv) was 30 mg/kg; in assay [3] (po), 46 mg/kg.

Regarding `CC(C)c1ccc2nc3ccc(C(=O)NCCCCc4cccnc4)cn3c(=O)c2c1` [Compound B, 2-(1-methylethyl)-N-[4-(3-pyridyl)butyl]-11-oxo-11H-pyrido[2,1-b]quinazoline-8-carboxamide], the IC50 in assay [1] was 450 nM; in assay [2] it was 2000 nM; in assay [4], 7000 nM. The ED50 in assay [3] (iv) was determined as 15 mg/kg; in assay [3] (po), 70 mg/kg.

Source of the values: patent US4551460A, “Pyrido[2,1-b]quinazoline derivatives useful as agents for treatment of allergic conditions and vascular disorders involving thrombosis” (priority 1983, dated 1985).
